# Measured values as given in PubChem BioAssay (NCI).
#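 Compound exposure: 48 hours, 5 concentrations, 96-well plates. TGI marks complete inhibition of growth.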
# How the values were obtained:
# Test in all cases: NCI tumour cell line growth inhibition, 48 h
# OVCAR-3 ovarian = tested on: OVCAR-3 ovarian
# MDA-MB-231 breast = tested on: MDA-MB-231 breast
# BT-549 breast = tested on: BT-549 breast
# SK-MEL-5 melanoma = tested on: SK-MEL-5 melanoma
# UO-31 renal = tested on: UO-31 renal
# OVCAR-5 ovarian = tested on: OVCAR-5 ovarian
# NCI-H460 lung = tested on: NCI-H460 lung
# LOX IMVI melanoma = tested on: LOX IMVI melanoma
# NCI-H23 lung = tested on: NCI-H23 lung
# TK-10 renal = tested on: TK-10 renal
SMILES,TGI (OVCAR-3 ovarian),TGI (MDA-MB-231 breast),TGI (BT-549 breast),TGI (SK-MEL-5 melanoma),TGI (UO-31 renal),TGI (OVCAR-5 ovarian),TGI (NCI-H460 lung),TGI (LOX IMVI melanoma),TGI (NCI-H23 lung),TGI (TK-10 renal)
COc1cc(/C=C/C(=N\NS(=O)(=O)c2ccc(C)cc2)c2sc(NNC(C)=O)nc2C)ccc1O,> 100 µM,> 100 µM,> 100 µM,> 100 µM,> 100 µM,> 100 µM,> 100 µM,> 100 µM,> 100 µM,> 100 µM
COc1ccc(C(OCC2OC(n3cc(C)c(=O)[nH]c3=O)CC2n2cc(Cn3cc(I)c(=O)[nH]c3=O)nn2)(c2ccccc2)c2ccccc2)cc1 (stereo not drawn),> 100 µM,> 100 µM,> 100 µM,> 100 µM,> 100 µM,> 100 µM,–,> 100 µM,> 100 µM,> 100 µM
Cc1cn(C2CC(n3cc(Cn4cc(I)c(=O)[nH]c4=O)nn3)C(CO)O2)c(=O)[nH]c1=O (stereo not drawn),> 100 µM,> 100 µM,> 100 µM,> 100 µM,–,> 100 µM,–,–,> 100 µM,> 100 µM
Oc1cccc2c(Cl)ccnc12,3.19 µM,97.5 µM,> 100 µM,14.8 µM,> 95.3 µM,> 50.4 µM,> 100 µM,19.6 µM,26.2 µM,> 100 µM
CC1(C)N=C(/C(Cl)=[N+](/[O-])C(=O)c2ccc(F)cc2)C(C)(C)N1O,31.2 µM,33.6 µM,–,30.4 µM,37.9 µM,36.1 µM,> 100 µM,24.3 µM,42.8 µM,29.7 µM
c1ccc(N=C2SC3=Nc4cccc5cccc(c45)N3C2=Nc2ccccc2)cc1,> 100 µM,> 100 µM,> 100 µM,> 100 µM,> 100 µM,> 100 µM,> 100 µM,–,> 100 µM,–
Clc1cc(OC2C3CC4CC(C3)CC2C4)nc(Cl)n1 (stereo not drawn),35.2 µM,27.5 µM,52.4 µM,32.1 µM,10.8 µM,44.2 µM,31.6 µM,14.4 µM,31 µM,> 100 µM
Oc1cc2c3c(c1)c1cc4c(cc1c[n+]3CC2)OCO4,> 50.9 µM,29.9 µM,8.1 µM,> 100 µM,> 100 µM,> 100 µM,> 23.9 µM,18.4 µM,13.3 µM,> 75.7 µM
CCC12C=CCN3CCC4(C(=C(C(=O)OC)[C@@H]1O)Nc1ccccc14)C32 (stereo partly drawn),3.89 µM,–,–,3.45 µM,6.49 µM,4.67 µM,3.71 µM,3.26 µM,3.72 µM,5.37 µM
O=C1CCC23CC(C=CC=C12)n1c(=O)n(-c2ccccc2)c(=O)n13 (stereo not drawn),> 100 µM,–,–,> 100 µM,> 100 µM,> 100 µM,> 100 µM,> 100 µM,> 100 µM,–
C=C(Br)C(C)(Cl)CCC(Br)C(C)(C)Cl (stereo not drawn),35.6 µM,> 100 µM,> 100 µM,> 100 µM,> 100 µM,> 100 µM,> 100 µM,38 µM,> 100 µM,> 100 µM
O=[N+]([O-])C(=C1NCCN1)/C(Cl)=C(\Cl)Br,38.7 µM,> 100 µM,> 96 µM,> 100 µM,> 100 µM,> 100 µM,> 100 µM,33.4 µM,> 69.6 µM,> 100 µM
CC1=C(C)[C@@]2(C)O[C@@]2(C)O[C@@]2(C)O[C@@]12C,–,> 100 µM,> 100 µM,> 100 µM,> 100 µM,> 100 µM,–,> 100 µM,> 100 µM,> 100 µM
O=C(O)c1cccc2c1/C(=N/Nc1ccccc1)CC2,> 100 µM,> 100 µM,–,> 100 µM,> 100 µM,> 100 µM,> 100 µM,> 100 µM,> 100 µM,> 100 µM
O=C(Nc1ccc(C2=NCCN2)cc1)c1cncc(C(=O)Nc2ccc(C3=NCCN3)cc2)c1,> 100 µM,–,–,> 100 µM,> 100 µM,> 100 µM,> 100 µM,> 100 µM,> 100 µM,–
N=c1n(C(=O)N2CCCC2)c2cc(Cl)ccc2n1C1=NCCN1,> 100 µM,> 100 µM,> 100 µM,> 100 µM,–,> 100 µM,> 100 µM,> 100 µM,–,> 100 µM
COC(=O)[C@H](Cc1c[nH]c2ccccc12)NP(=O)(O)OCC1C=CC(n2cc(C)c(=O)[nH]c2=O)O1 (stereo partly drawn),> 100 µM,> 100 µM,> 100 µM,> 100 µM,–,–,–,> 100 µM,> 100 µM,–
FC(F)(F)c1cc(Cl)cnc1N/N=C(/c1ccccc1)c1ccccn1,12.7 µM,40.2 µM,36.4 µM,> 100 µM,11.9 µM,33.4 µM,15 µM,–,14.4 µM,–
COc1cc([C@@H]2c3cc4c(cc3[C@@H](Nc3ccc([N+](=O)[O-])cc3C(=O)c3ccccc3)[C@H]3COC(=O)[C@H]23)OCO4)cc(OC)c1OC,> 100 µM,–,–,–,–,> 100 µM,–,> 100 µM,> 28.6 µM,> 100 µM
O=C(Cc1cccs1)N[C@@H]1C(=O)N2C(C(=O)OC(c3ccccc3)c3ccccc3)=C(CO)CS[C@H]12,> 100 µM,> 100 µM,–,> 100 µM,> 100 µM,> 100 µM,> 100 µM,> 100 µM,> 100 µM,> 100 µM
Oc1ccc(-c2nc(-c3cccnc3)c(-c3ccc(F)cc3)[nH]2)cc1,31.1 µM,41.7 µM,32.6 µM,33.8 µM,–,68 µM,63.9 µM,28.5 µM,25.5 µM,36.2 µM
Cc1cccc2c(=O)cc(-c3ccccc3)[nH]c12,> 100 µM,–,–,78.4 µM,> 100 µM,–,> 100 µM,> 100 µM,> 100 µM,> 100 µM
Cc1ccc(SCC(CSCCO)OCn2cnc3c2NC(N)=NC32OCCO2)cc1 (stereo not drawn),> 100 µM,> 100 µM,–,> 100 µM,> 100 µM,> 100 µM,> 100 µM,> 100 µM,> 100 µM,> 100 µM
